Reference: publication PMC12732581, “Molecular and System-Level Characterization of MMP12 Suppression in Lung Cancer: A Combined Bioinformatics and Molecular Approach” (International Journal of Molecular Sciences, 2025)

Columns and labels:
recombinant human MMP12 = target: T1, recombinant human MMP12 (Homo sapiens, UniProt P39900); assay: MMP12 colorimetric thiopeptide enzyme inhibition assay (Abcam); assay type: biochemical; details: at 50 µM
T1 construct: purchased Abcam
Procedure: The enzyme inhibition potential of synthesized p-chlorocinnamic acid derivatives against MMP12 was assessed using the Abcam colorimetric assay.
The inhibitory activity of the newly synthesized compounds against MMP12 was assessed using a previously established enzymatic assay protocol, as described in our earlier study. In brief, we conducted a colorimetric thiopeptide-based inhibition assay for MMP12 using recombinant human MMP12 and the reference inhibitor NNGH as a positive control. The IC50 values were calculated using GraphPad Prism version 9 (GraphPad Software, San Diego, CA, USA).

A549 lung cancer cells = assay: MTT cell viability assay, A549; assay type: cell-based, human
Procedure: (§1) To evaluate the impact of MMP12 inhibitors on lung cancer cell lines, an MTT assay was performed on A549, H1299, and H661 cells exposed to varying concentrations of inhibitors over 48, 72, and 96 h.
(§2) The lung cancer cell lines referenced as A549, H1299, and H661 were acquired from the American Type Culture Collection (ATCC, Manassas, VA, USA). Fibroblast cells of dermal origin were used as a model for normal human tissue, which were also purchased from ATCC. A549, H1299, and H661 cells were maintained in the RPMI culture medium, while fibroblast cells were maintained in the DMEM high glucose culture medium. Both RPMI and DMEM culture media were supplemented with 100 U/mL penicillin, 0.1 mg/mL streptomycin to prevent bacterial growth, 10% FBS to promote cell growth, and 2 mM L-glutamine as an energy source.
(§3) The 3-(4,5-dimethylthiazol-2-yl)-2,5-diphenyltetrazolium bromide (MTT) assay was employed to evaluate cell proliferation as previously noted. All experiments were performed in triplicate wells and were repeated at least twice independently. The percentage of the relative cell viability of treated cells versus the untreated cells (negative controls) was calculated using the following formula in Equation (1) (cell viability calculation):(1) Cell viability%=optical density of treated cells/optical density of untreated cells×100

H1299 lung cancer cells = assay: MTT cell viability assay, H1299; assay type: cell-based, human
Procedure: as §1, §2, §3

H661 lung cancer cells = assay: MTT cell viability assay, H661; assay type: cell-based, human
Procedure: as §1, §2, §3

T1 sequence (P39900 106-470): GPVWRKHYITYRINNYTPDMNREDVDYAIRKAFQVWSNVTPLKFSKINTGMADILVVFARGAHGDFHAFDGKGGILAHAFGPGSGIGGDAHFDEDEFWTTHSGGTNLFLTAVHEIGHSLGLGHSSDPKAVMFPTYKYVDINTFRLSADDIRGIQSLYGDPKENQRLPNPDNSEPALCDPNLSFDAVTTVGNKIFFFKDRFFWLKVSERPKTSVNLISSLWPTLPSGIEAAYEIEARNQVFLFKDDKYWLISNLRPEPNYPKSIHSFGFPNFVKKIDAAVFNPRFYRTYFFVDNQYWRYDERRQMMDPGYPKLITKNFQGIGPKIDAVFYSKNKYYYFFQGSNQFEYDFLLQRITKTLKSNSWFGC

Row | MMP12 enzyme inhibition (recombinant human MMP12) [%] | IC50 (A549 lung cancer cells; A549, 48 h) [µM] | IC50 (A549 lung cancer cells; A549, 72 h) [µM] | IC50 (A549 lung cancer cells; A549, 96 h) [µM] | IC50 (H1299 lung cancer cells; H1299, 48 h) [µM] | IC50 (H1299 lung cancer cells; H1299, 72 h) [µM] | IC50 (H1299 lung cancer cells; H1299, 96 h) [µM] | IC50 (H661 lung cancer cells; H661, 48 h) [µM] | IC50 (H661 lung cancer cells; H661, 72 h) [µM] | IC50 (H661 lung cancer cells; H661, 96 h) [µM] | SMILES
1 | 21.3 | > 1000 | > 1000 | 830 | 361 | 268 | 256 | 448 | 260 | 270 | Cc1ccc(C(=O)c2ccccc2NC(=O)/C=C/c2ccc(Cl)cc2)cc1 [Compound C6]
2 | 35.0 | > 1000 | > 1000 | > 1000 | 827 | 692 | 349 | 599 | 410 | 350 | O=C(/C=C/c1ccc(Cl)cc1)Nc1cccc(C(=O)c2ccccc2)c1 [Compound C2]
3 | 11.5 | > 1000 |  | 865 | 636 | 449 | 419 | 489 | 366 | 226 | O=C(/C=C/c1ccc(Cl)cc1)Nc1ccccc1C(=O)c1ccccc1 [Compound C5]

Row | SMILES | MMP12 enzyme inhibition (recombinant human MMP12) [%] | IC50 (A549 lung cancer cells; A549, 48 h) [µM] | IC50 (A549 lung cancer cells; A549, 72 h) [µM] | IC50 (A549 lung cancer cells; A549, 96 h) [µM] | IC50 (H1299 lung cancer cells; H1299, 48 h) [µM] | IC50 (H1299 lung cancer cells; H1299, 72 h) [µM] | IC50 (H1299 lung cancer cells; H1299, 96 h) [µM] | IC50 (H661 lung cancer cells; H661, 48 h) [µM] | IC50 (H661 lung cancer cells; H661, 72 h) [µM] | IC50 (H661 lung cancer cells; H661, 96 h) [µM]
4 | O=C(/C=C/c1ccc(Cl)cc1)Nc1ccc(Cl)cc1C(=O)c1ccccc1 [Compound C3] | 23.5 | 251 | 269 | 999 | 557 | 401 | 338 | 571 | 301 | 203
